One assay has as its target human V1a receptor (Homo sapiens (Human), UniProt P37288). In words: Cellular in vitro assay for determining the vasopressin receptor activity (aequorin luminescence, CHO cells, antagonism of [Arg8]-vasopressin). Type of assay: cell-based. The settings on record: cell line transfected with the human V1a receptor; agonist [Arg8]-vasopressin; read-out: IC50 hV1a. From the text:
(§1) • EDTA ethylenediaminetetraacetic acid • DMEM Dulbecco's Modified Eagle Medium • FCS foetal calf serum • HEPES 4-(2-hydroxyethyl)-1-piperazineethanesulphonic acid • SmGM Smooth Muscle Cell Growth Media • Tris-HCl 2-amino-2-(hydroxymethyl)-1,3-propanediol hydrochloride B-1. Cellular in vitro Assay for Determining the Vasopressin Receptor Activity
(§2) The identification of agonists and antagonists of the V1a and V2 vasopressin receptors from humans and rats and also the quantification of the activity of the compounds of the invention takes place using recombinant cell lines. […] In addition, the cells are stably transfected with the human or rat V1a or V2 receptors.
(§3) On the day before the assay, the cells are plated out in culture medium (DMEM, 10% FCS, 2 mM glutamine, 10 mM HEPES) in 384-well microtitre plates and kept in a cell incubator (96% humidity, 5% v/v CO2, 37° C.). On the day of the assay, the culture medium is replaced by a Tyrode solution (140 mM NaCl, 5 mM KCl, 1 mM MgCl2, 2 mM CaCl2, 20 mM glucose, 20 mM HEPES), which additionally contains the cofactor coelenterazine (50 μM), and the microtitre plate is then incubated for a further 3-4 hours. The test substances in various concentrations are placed for 10 to 20 minutes in the wells of the microtitre plate before the agonist [Arg^8]-vasopressin is added, and the resulting light signal is measured immediately in the luminometer.

The next assay deals with human V2 receptor (Homo sapiens (Human), UniProt P30518). The description is as above. The settings on record: cell line transfected with the human V2 receptor; agonist [Arg8]-vasopressin; read-out: IC50 hV2. The class given is cell-based.
Source text: as §1, §2, §3

pIC50: −log10 of the molar value.

Sequence of human V2 receptor (P30518 whole entry): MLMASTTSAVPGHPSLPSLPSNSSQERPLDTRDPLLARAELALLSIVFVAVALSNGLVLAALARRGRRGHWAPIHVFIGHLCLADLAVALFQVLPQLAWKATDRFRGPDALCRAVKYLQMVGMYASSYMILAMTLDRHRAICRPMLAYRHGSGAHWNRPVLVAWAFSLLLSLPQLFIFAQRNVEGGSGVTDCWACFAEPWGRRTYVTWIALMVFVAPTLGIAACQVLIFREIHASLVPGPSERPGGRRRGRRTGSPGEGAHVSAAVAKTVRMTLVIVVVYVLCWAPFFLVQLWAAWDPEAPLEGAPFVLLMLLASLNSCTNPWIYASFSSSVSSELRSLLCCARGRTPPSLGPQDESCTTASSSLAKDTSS
Sequence of human V1a receptor (P37288 whole entry): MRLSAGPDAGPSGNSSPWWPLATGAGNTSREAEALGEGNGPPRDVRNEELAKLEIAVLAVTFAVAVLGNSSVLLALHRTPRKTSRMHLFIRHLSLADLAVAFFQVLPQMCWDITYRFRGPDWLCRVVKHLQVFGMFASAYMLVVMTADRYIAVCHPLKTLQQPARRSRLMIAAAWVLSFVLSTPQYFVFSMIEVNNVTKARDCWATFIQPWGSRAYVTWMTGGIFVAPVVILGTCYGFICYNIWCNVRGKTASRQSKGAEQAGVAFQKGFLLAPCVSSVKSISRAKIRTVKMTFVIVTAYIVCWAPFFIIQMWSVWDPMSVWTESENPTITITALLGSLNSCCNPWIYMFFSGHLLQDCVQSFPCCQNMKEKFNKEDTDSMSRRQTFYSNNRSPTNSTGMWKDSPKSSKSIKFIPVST

As for `NC(=O)OCC(CNC(=O)Cn1nc(-c2ccc(Cl)cc2)n(C[C@H](O)C(F)(F)F)c1=O)c1ccccc1C(F)(F)F` (single isomer, unassigned) [Example 2], the pIC50 (usually the negative decadic logarithm of the IC50, by convention in mol/L) at human V1a receptor was 9.00; on human V2 receptor, 7.80.

Regarding `NC(=O)OCC(CNC(=O)Cn1nc(-c2ccc(Cl)cc2)n(C[C@H](O)C(F)(F)F)c1=O)c1cccc(C(F)(F)F)c1` (single isomer, unassigned) [Example 9], the values for the pIC50 at human V1a receptor and at human V2 receptor were 7.20 and 8.30, respectively.

For the compound `CC(C)(C)OC(=O)NC(CNC(=O)Cn1nc(-c2ccc(Cl)cc2)n(C[C@H](O)C(F)(F)F)c1=O)c1cccc(Cl)c1Cl` (single isomer, unassigned) [Example 19], the pIC50 at human V2 receptor was 7.96.

As to `COCCn1c(-c2ccc(Cl)s2)nn(CC(=O)NCC(NS(C)(=O)=O)c2ccccc2C(F)(F)F)c1=O` (racemic) [Example 69, 2-[3-(5-Chloro-2-thienyl)-4-(2-methoxyethyl)-5-oxo-4,5-dihydro-1H-1,2,4-triazol-1-yl]-N-{2-[(methylsulphonyl)amino]-2-[2-(trifluoromethyl)phenyl]ethyl}acetamide], the pIC50 at human V1a receptor is 6.89; at human V2 receptor, 5.46.

Consider `CC(C)(C)OC(=O)NC(CNC(=O)Cn1nc(-c2ccc(Cl)cc2)n(C[C@H](O)C(F)(F)F)c1=O)c1ccccc1C(F)(F)F` (stereo partly drawn) [Example 13, tert-Butyl {2-[({3-(4-chlorophenyl)-5-oxo-4-[(2S)-3,3,3-trifluoro-2-hydroxypropyl]-4,5-dihydro-1H-1,2,4-triazol-1-yl}acetyl)amino]-1-[2-(trifluoromethyl)phenyl]ethyl}carbamate], for which the negative logarithm of the IC50 (pIC50) is 8.40 at human V1a receptor and 7.15 at human V2 receptor.

On to `NC(=O)OC(CNC(=O)Cn1nc(-c2ccc(Cl)cc2)n(Cc2ccccc2F)c1=O)c1ccccc1Cl` (racemic) [Example 57, 1-(2-Chlorophenyl)-2-({[3-(4-chlorophenyl)-4-(2-fluorobenzyl)-5-oxo-4,5-dihydro-1H-1,2,4-triazol-1-yl]acetyl}amino)ethyl carbamate], for which the pIC50 at human V1a receptor is 8.00; on human V2 receptor, 7.66.

Turning to `CC(C)(C)OC(=O)NC(CNC(=O)Cn1nc(-c2ccc(Cl)s2)n(Cc2ccccc2F)c1=O)c1ccccc1C(F)(F)F` (racemic) [Example 67, tert-Butyl {2-({[3-(5-chloro-2-thienyl)-4-(2-fluorobenzyl)-5-oxo-4,5-dihydro-1H-1,2,4-triazol-1-yl]acetyl}amino)-1-[2-(trifluoromethyl)phenyl]ethyl}carbamate], the pIC50 is 7.74 at human V1a receptor and 6.52 at human V2 receptor.

In the case of `NC(=O)NC(CNC(=O)Cn1nc(-c2ccc(Cl)cc2)n(C[C@H](O)C(F)(F)F)c1=O)c1ccccc1Cl` (single isomer, unassigned) [Example 33], the pIC50 at human V1a receptor was 7.77; at human V2 receptor it was 8.10.

Consider `CS(=O)(=O)NC(CNC(=O)Cn1nc(-c2ccc(Cl)cc2)n(C[C@H](O)C(F)(F)F)c1=O)c1ccccc1Cl` (stereo partly drawn) [Example 25, N-{2-(2-Chlorophenyl)-2-[(methylsulphonyl)amino]ethyl}-2-{3-(4-chlorophenyl)-5-oxo-4-[(2S)-3,3,3-trifluoro-2-hydroxypropyl]-4,5-dihydro-1H-1,2,4-triazol-1-yl}acetamide], for which the negative logarithm of the IC50 (pIC50) on human V1a receptor was 8.10; on human V2 receptor, 8.30.

As to `NC(=O)OC(CNC(=O)Cn1nc(-c2ccc(Cl)cc2)n(C[C@H](O)C(F)(F)F)c1=O)c1ccccc1C(F)(F)F` (single isomer, unassigned) [Example 42], the results for the pIC50 at human V1a receptor and at human V2 receptor were 8.10 and 8.52, respectively.

For the compound `O=C(Cn1nc(-c2ccc(Cl)cc2)n(C[C@H](O)C(F)(F)F)c1=O)N[C@@H](CO)Cc1cccc(C(F)(F)F)c1` [Example 53, 2-{3-(4-Chlorophenyl)-5-oxo-4-[(2S)-3,3,3-trifluoro-2-hydroxypropyl]-4,5-dihydro-1H-1,2,4-triazol-1-yl}-N-{(2R)-1-hydroxy-3-[3-(trifluoromethyl)phenyl]propan-2-yl}acetamide], the pIC50 on human V1a receptor is 8.40; at human V2 receptor, 7.82.

With `CC(=O)NC(C)(CNC(=O)Cn1nc(-c2ccc(Cl)cc2)n(C[C@H](O)C(F)(F)F)c1=O)c1cccc(C(F)(F)F)c1` (single isomer, unassigned) [Example 39], the negative logarithm of the IC50 (pIC50) was 7.60 at human V1a receptor and 8.00 on human V2 receptor.

Take `NC(=O)OCC(CNC(=O)Cn1nc(-c2ccc(Cl)cc2)n(C[C@H](O)C(F)(F)F)c1=O)c1ccccc1Cl` (single isomer, unassigned) [Example 6]: the negative logarithm of the IC50 (pIC50) on human V1a receptor was 7.92.

Turning to `NC(=O)OC(CNC(=O)Cn1nc(-c2ccc(Cl)cc2)n(C[C@H](O)C(F)(F)F)c1=O)c1cccc(Cl)c1Cl` (single isomer, unassigned) [Example 52], the figures for the pIC50 at human V1a receptor and on human V2 receptor were 8.15 and 8.70, respectively.

With `NC(=O)OC(CNC(=O)Cn1nc(-c2ccc(Cl)cc2)n(CCC(F)(F)F)c1=O)c1ccccc1Cl` (racemic) [Example 59, 1-(2-Chlorophenyl)-2-({[3-(4-chlorophenyl)-5-oxo-4-(3,3,3-trifluoropropyl)-4,5-dihydro-1H-1,2,4-triazol-1-yl]acetyl}amino)ethyl carbamate], the pIC50 was 7.85 on human V1a receptor and 7.32 on human V2 receptor.

Consider `COCCn1c(-c2ccc(Cl)s2)nn(CC(=O)NCC(NC(=O)OC(C)(C)C)c2ccccc2C(F)(F)F)c1=O` (racemic) [Example 66, tert-Butyl {2-({[3-(5-chloro-2-thienyl)-4-(2-methoxyethyl)-5-oxo-4,5-dihydro-1H-1,2,4-triazol-1-yl]acetyl}amino)-1-[2-(trifluoromethyl)phenyl]ethyl}carbamate], for which the pIC50 on human V1a receptor is 7.29; on human V2 receptor, 5.92.

As for `NC(=O)OC(CNC(=O)Cn1nc(-c2ccc(Cl)cc2)n(C[C@H](O)C(F)(F)F)c1=O)c1ccccc1Cl` (stereo partly drawn) [Example 47, 1-(2-Chlorophenyl)-2-[({3-(4-chlorophenyl)-5-oxo-4-[(2S)-3,3,3-trifluoro-2-hydroxypropyl]-4,5-dihydro-1H-1,2,4-triazol-1-yl}acetyl)amino]ethyl carbamate], the pIC50 on human V1a receptor is 8.30; at human V2 receptor, 8.70.

On to `CCNC(=O)OCC(CNC(=O)Cn1nc(-c2ccc(Cl)cc2)n(C[C@H](O)C(F)(F)F)c1=O)c1cccc(C(F)(F)F)c1` (stereo partly drawn) [Example 10, 3-[({3-(4-Chlorophenyl)-5-oxo-4-[(2S)-3,3,3-trifluoro-2-hydroxypropyl]-4,5-dihydro-1H-1,2,4-triazol-1-yl}acetyl)amino]-2-[3-(trifluoromethyl)phenyl]propyl ethylcarbamate], for which the results for the negative logarithm of the IC50 (pIC50) on human V1a receptor and at human V2 receptor were 7.62 and 8.05, respectively.

As to `O=CNC(CNC(=O)Cn1nc(-c2ccc(Cl)cc2)n(C[C@H](O)C(F)(F)F)c1=O)c1cccc(C(F)(F)F)c1` (stereo partly drawn) [Example 36, 2-{3-(4-Chlorophenyl)-5-oxo-4-[(2S)-3,3,3-trifluoro-2-hydroxypropyl]-4,5-dihydro-1H-1,2,4-triazol-1-yl}-N-{2-formamido-2-[3-(trifluoromethyl)phenyl]ethyl}acetamide], the results for the negative logarithm of the IC50 (pIC50) on human V1a receptor and on human V2 receptor were 7.72 and 7.89, respectively.
